In publication PMC11643962, “Exploring 4,7-Disubstituted Pyrimido[4,5-d]pyrimidines as Antiviral and Anticancer Agents” (Molecules, 2024):
Like-named read-outs stand apart in the source and are kept apart here.

How the values were obtained:
in vitro [1] = conditions: dog
LN-229 (glioblastoma) = test: MTS proliferation assay, LN-229; conditions: Homo sapiens, LN-229, 72 h, read-out: Anti-Proliferative Activity (IC50) LN-229
Zika virus (ZikV mr766) = test: Antiviral CPE reduction assay, Zika virus mr766 in VeroE6 cells; format: cell-based; conditions: Zika virus, Vero C1008, MTS, mean ± SD, no unit printed on the supplement page (Table 2 of the same screen is in µM)
[2] = test system: K-562 (chronic myeloid leukemia); test: MTS proliferation assay, K-562; conditions: Homo sapiens, K562, 72 h, read-out: Anti-Proliferative Activity (IC50) K-562
HCoV-OC43 = test: Antiviral CPE reduction assay, HCoV-OC43 in HEL299 cells; format: cell-based, human coronavirus OC43; conditions: Betacoronavirus 1, OC43, HEL 299, MTS, mean ± SD of two or three independent experiments
[3] = test system: HL-60 (acute myeloid leukemia); test: MTS proliferation assay, HL-60; conditions: Homo sapiens, HL-60, 72 h, read-out: Anti-Proliferative Activity (IC50) HL-60
[4] = test system: respiratory syncytial virus A (RSV A Long); test: Antiviral CPE reduction assay, RSV A Long in Hep2 cells; format: cell-based; conditions: human respiratory syncytial virus
[5] = test system: DND-41 (acute lymphoblastic leukemia); test: MTS proliferation assay, DND-41; conditions: Homo sapiens, DND41, 72 h, read-out: Anti-Proliferative Activity (IC50) DND-41
[6] = test system: Z-138 (non-Hodgkin lymphoma); test: MTS proliferation assay, Z-138; conditions: Homo sapiens, Z-138, 72 h, read-out: Anti-Proliferative Activity (IC50) Z-138
[7] = test system: HCT-116 (colorectal carcinoma); test: MTS proliferation assay, HCT-116; conditions: Homo sapiens, HCT-116, 72 h, read-out: Anti-Proliferative Activity (IC50) HCT-116
HCoV-NL63 = test: Antiviral CPE reduction assay, HCoV-NL63 in Hep3B cells; format: cell-based, human coronavirus NL63; conditions: Human coronavirus NL63, MTS, mean ± SD of two or three independent experiments
in vitro [8] = conditions: African green monkey
[9] = test system: yellow fever virus (YFV 17D); test: microbe, parasite or virus in culture; format: cell-based; conditions: Yellow fever virus, Vero C1008, read-out: Antiviral activity (EC50) YFV 17D
[10] = test system: influenza A/H1N1 (A/Ned/378/05); test: Antiviral CPE reduction assay, influenza A/H1N1 in MDCK cells; format: cell-based, influenza A virus; conditions: Influenza A virus, read-out: Antiviral Activity (EC50) Influenza H1N1
HCoV-229E = test: Antiviral CPE reduction assay, HCoV-229E in HEL299 cells; format: cell-based, human coronavirus 229E; conditions: Human coronavirus 229E, HEL 299, MTS, mean ± SD of two or three independent experiments
[11] = test system: influenza B (B/Ned/537/05); test: Antiviral CPE reduction assay, influenza B in MDCK cells; format: cell-based, influenza B virus; conditions: Influenza B virus, MDCK, read-out: Antiviral Activity (EC50) Influenza B
[12] = test system: NCI-H460 (lung carcinoma); test: MTS proliferation assay, NCI-H460; conditions: Homo sapiens, NCI-H460, 72 h, read-out: Anti-Proliferative Activity (IC50) NCI-H460
[13] = test system: Capan-1 (pancreatic adenocarcinoma); test: MTS proliferation assay, Capan-1; conditions: Homo sapiens, CAPAN-1, 72 h, read-out: Anti-Proliferative Activity (IC50) Capan-1
[14] = test system: eight diverse human cancer cell lines; test: MTS proliferation assay, panel of eight human cancer cell lines (statements for the whole panel); conditions: 72 h, read-out: CC50 values (anti-proliferative activity) against the majority of the tested cell lines
[15] = test system: herpes simplex virus-1 (HSV-1 KOS); test: Antiviral CPE reduction assay, HSV-1 KOS in HEL299 cells; format: cell-based; conditions: Human alphaherpesvirus 1, HEL 299, MTS, mean ± SD, no unit printed on the supplement page (Table 2 of the same screen is in µM)
[16] = test system: influenza A/H3N2 (A/HK/7/87); test: Antiviral CPE reduction assay, influenza A/H3N2 in MDCK cells; format: cell-based, influenza A virus; conditions: Influenza A virus, read-out: Antiviral Activity (EC50) Influenza H3N2
[17] = test system: variety of viruses (HSV-1, influenza viruses, yellow fever virus, Zika virus, RSV, HCoV-229E, HCoV-OC43, HCoV-NL63); format: cell-based; conditions: CPE reduction assays, virus panel
in vitro [18] = conditions: human
in vitro [19] = conditions: human; remark: listed apart in the source
in vitro [20] = conditions: human; remark: listed apart in the source
[21] = HEp-2, Hep2 cells, CPE reduction, MTS, mean ± SD of two or three independent experiments, read-out: Antiviral Activity (EC50) RSV A Long
[22] = H1N1, MDCK cells, CPE reduction, MTS, mean ± SD of two or three independent experiments
[23] = H3N2, MDCK cells, CPE reduction, MTS, mean ± SD of two or three independent experiments

Compound | CC50 (in vitro [1]) | IC50 (LN-229 (glioblastoma)) | EC50 (Zika virus (ZikV mr766)) | IC50 [2] | EC50 (HCoV-OC43) | IC50 [3] | IC50 [5] | IC50 [6] | IC50 [7] | EC50 (HCoV-NL63) | CC50 (in vitro [8]) | EC50 [9] | EC50 (HCoV-229E) | EC50 [11] | IC50 [12] | IC50 [13] | EC50 [15] | antiviral activity (in words) [17] | EC50 [4, 21] | melting point | also measured
CC#CC(=O)Nc1ccc2ncnc(Nc3cccc(Br)c3)c2c1 [CL-387785, reference compound] | 7.1 ± 0.4 µM | 43.8 ± 6.7 µM | > 100 µM | 65 ± 0.2 µM | 1.8 ± 0.4 µM | 1.9 ± 0.04 µM | 0.9 ± 0.2 µM | 0.2 ± 0.1 µM | 1.3 ± 1.1 µM | > 100 µM | > 100 µM | > 100 µM | 0.4 ± 0.2 µM | 4.5 ± 1.2 µM | 2.8 ± 0.6 µM | 0.1 ± 0.01 µM | 1 µM |  |  |  | EC50 ([4]; HEp-2, read-out: Antiviral Activity (EC50) RSV A Long): > 100 µM; EC50 ([10]; H1N1, MDCK): > 100 µM; CC50 [14]: < 10 µM; EC50 ([16]; H3N2, MDCK): > 100 µM
c1cc2c(c(Nc3ncnc4nc(NC5CC5)ncc34)c1)CCCC2 [Compound 7c, N^2-cyclopropyl-N^5-(5,6,7,8-tetrahydronaphthalen-1-yl)pyrimido[4,5-d]pyrimidine-2,5-diamine] | > 50 µM | > 100 µM | > 50 µM | > 100 µM | > 50 µM | > 100 µM | > 100 µM | > 100 µM | > 100 µM | > 50 µM | > 50 µM | > 50 µM | > 50 µM | > 50 µM | > 100 µM | > 100 µM | > 50 µM | inactive | > 50 µM | 189 °C | CC50 (in vitro [18]): > 50 µM; CC50 (in vitro [19]): > 50 µM; EC50 [10, 22]: > 50 µM; CC50 (in vitro [20]): > 50 µM; EC50 [16, 23]: > 50 µM
CN1CCN(c2ncc3c(Nc4cccc5c4CCC5)ncnc3n2)CC1 [Compound 7d, N-(2,3-dihydro-1H-inden-4-yl)-7-(4-methylpiperazin-1-yl)pyrimido[4,5-d]pyrimidin-4-amine] | > 50 µM | > 100 µM | > 50 µM | 61.3 ± 2.4 µM | > 50 µM | ≥ 71 µM | 80.6 ± 10.2 µM | 56.5 ± 1.2 µM | > 100 µM | > 50 µM | > 50 µM | > 50 µM | > 50 µM | > 50 µM | > 100 µM | > 100 µM | > 50 µM | inactive | > 50 µM | > 250 °C | CC50 (in vitro [18]): > 50 µM; CC50 (in vitro [19]): > 50 µM; EC50 [10, 22]: > 50 µM; CC50 (in vitro [20]): > 50 µM; EC50 [16, 23]: > 50 µM
